pIC50: −log10 of the molar value.
What was measured:
KRAS G12V = KRAS G12V (Homo sapiens, UniProt P01116, G12V); experiment: KRAS G12V GDP-GTP exchange assay (bodipy-GDP for GppNHp, with SOS1); format: biochemical; settings: 2.5 nM bodipy loaded KRAS G12V, 3 hours after GppNHp-SOS1; read-out: G12V_exchange (KRAS_G12V exchange assay IC50)
Experimental: (§1) The inhibitor potency of the exemplified compounds was determined in a fluorescence based guanine nucleotide exchange assay, which measures the exchange of bodipy-GDP (fluorescently labeled GDP) for GppNHp (Non-hydrolyzable GTP analog) to generate the active state of KRAS in the presence of SOS1 (guanine nucleotide exchange factor). Inhibitors were serially diluted in DMSO and a volume of 0.1 μL was transferred to the wells of a black low volume 384-well plate. 5 μL/well volume of bodipy-loaded KRAS G12C diluted to 5 nM in assay buffer (25 mM Hepes pH 7.5, 50 mM NaCl, 10 mM MgCl2 and 0.01% Brij-35) was added to the plate and pre-incubated with inhibitor for 2 hours at ambient temperature. Appropriate controls (enzyme with no inhibitor or with a G12C inhibitor (AMG-510)) were included on the plate. The exchange was initiated by the addition of a 5 μL/well volume containing 1 mM GppNHp and 300 nM SOS1 in assay buffer. The 10 μL/well reaction concentration of the bodipy-loaded KRAS G12C, GppNHp, and SOS1 were 2.5 nM, 500 uM, and 150 nM, respectively. The reaction plates were incubated at ambient temperature for 2 hours, a time estimated for complete GDP-GTP exchange in the absence of inhibitor. For the KRAS G12D and G12V mutants, similar guanine nucleotide exchange assays were used with 2.5 nM as final concentration for the bodipy loaded KRAS proteins and with 4 hours and 3 hours incubation after adding GppNHp-SOS1 mixture for G12D and G12V respectively. A cyclic peptide described to selectively bind G12D mutant (Sakamoto et al., BBRC 484.3 (2017), 605-611) or internal compounds with confirmed binding were used as positive controls in the assay plates. Fluorescence intensities were measured on a PheraStar plate reader instrument (BMG Labtech) with excitation at 485 nm and emission at 520 nm.
(§2) Either GraphPad prism or XLfit was used to analyze the data. The IC50 values were derived by fitting the data to a four parameter logistic equation producing a sigmoidal dose-response curve with a variable Hill coefficient. Prism equation: Y=Bottom+(Top−Bottom)/(1+10^((Log IC50−X)*Hill slope)); XLfit equation: Y=(A+((B−A)/(1+((X/C)^D)))) where X is the logarithm of inhibitor concentration and Y is the response.

KRAS G12D = KRAS G12D (Homo sapiens, UniProt P01116, G12D); experiment: KRAS G12D GDP-GTP exchange assay (bodipy-GDP for GppNHp, with SOS1); format: biochemical; settings: 2.5 nM bodipy loaded KRAS G12D, 4 hours after GppNHp-SOS1; read-out: G12D_exchange (KRAS_G12D exchange assay IC50)
Sequence of KRAS G12D (P01116 1-188 isoform P01116-2 G12D): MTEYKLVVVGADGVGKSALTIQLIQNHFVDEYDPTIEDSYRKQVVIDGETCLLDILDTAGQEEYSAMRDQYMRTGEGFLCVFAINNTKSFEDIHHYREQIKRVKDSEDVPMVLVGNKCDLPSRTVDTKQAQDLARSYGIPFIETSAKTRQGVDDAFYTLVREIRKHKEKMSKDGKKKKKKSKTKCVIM
Experimental: as §1, §2

KRAS G12C = KRAS G12C (Homo sapiens, UniProt P01116, G12C); experiment: KRAS G12C GDP-GTP exchange assay (bodipy-GDP for GppNHp, with SOS1); format: biochemical; settings: 2.5 nM bodipy-loaded KRAS G12C, 2 hours pre-incubation with inhibitor, 2 hours after GppNHp-SOS1; read-out: G12C_exchange (KRAS_G12C exchange assay IC50)
Sequence of KRAS G12C (P01116 1-188 isoform P01116-2 G12C): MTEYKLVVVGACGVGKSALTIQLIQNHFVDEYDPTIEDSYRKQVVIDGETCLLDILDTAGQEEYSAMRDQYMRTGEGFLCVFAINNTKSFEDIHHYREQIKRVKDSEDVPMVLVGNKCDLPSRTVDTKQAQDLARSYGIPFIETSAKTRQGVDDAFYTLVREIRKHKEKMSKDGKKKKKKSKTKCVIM
Summary of the method: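 Fluorescence nucleotide-exchange assay: bodipy-GDP-loaded KRAS (2.5 nM final) pre-incubated with inhibitor 2 h at ambient temperature, then 500 µM GppNHp plus 150 nM SOS1 added in pH 7.5 Hepes/MgCl2 buffer. Exchange read at ex 485/em 520 nm after 2 h (G12C), 4 h (G12D) or 3 h (G12V). IC50 from four-parameter logistic fit.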

[1] = tested on: MIA PaCa-2 (KRAS G12C) cells; experiment: KRAS_G12C cellular pERK HTRF assay; format: cell-based, human; parameters: G12C_pERK (KRAS_G12C pERK assay IC50): scale not given here; settings: phospho-ERK1/2 HTRF, 4 hours incubation; for pIC50: Homo sapiens, MIA PaCa-2, read-out: G12C_pERK (KRAS_G12C pERK assay IC50)
Summary of the method: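 MIA PaCa-2 (G12C) or G12D lines (A427, HPAF-II) in RPMI/10% FBS, treated with compound for 4 h (G12C) or 2 h (G12D) at 37 °C after overnight plating. Lysed, phospho-ERK1/2 detected by HTRF (665/620 nm). IC50 from percent inhibition versus log concentration.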

Sequence of KRAS G12V (P01116 1-188 isoform P01116-2 G12V): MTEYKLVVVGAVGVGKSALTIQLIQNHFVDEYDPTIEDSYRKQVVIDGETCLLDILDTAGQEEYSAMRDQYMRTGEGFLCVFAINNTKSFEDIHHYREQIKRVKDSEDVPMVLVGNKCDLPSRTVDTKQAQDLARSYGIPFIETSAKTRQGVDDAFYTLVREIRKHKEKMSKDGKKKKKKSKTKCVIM

Row | SMILES | pIC50 (KRAS G12V) | pIC50 (KRAS G12D) | pIC50 (KRAS G12C) | pIC50 [1] | G12C_pERK (KRAS_G12C pERK assay IC50) [1]
1 | COC(=O)CCc1cc2c(OC[C@@H]3CCCN3C)nc3c(F)c(-c4cc(O)cc5ccccc45)c(CCC#N)cc3c2n1C1C2CNC1C2 (single isomer, unassigned) [Example 29] | ≥ 7.00 | ≥ 7.00 |  |  | 
2 | CN1CCC[C@H]1COc1nc2c(F)c(-c3cc(O)cc4ccccc34)c(CCC#N)cc2c2c1c(-c1ccc(=O)[nH]c1)cn2C1C2CNC1C2 (stereo partly drawn) [Example 42, 3-(1-(2-azabicyclo[2.1.1]hexan-5-yl)-6-fluoro-7-(3-hydroxynaphthalen-1-yl)-4-(((S)-1-methylpyrrolidin-2-yl)methoxy)-3-(6-oxo-1,6-dihydropyridin-3-yl)-1H-pyrrolo[3,2-c]quinolin-8-yl)propanenitrile] | 6.00 to 7.00 | ≥ 7.00 |  |  | 
3 | CCOc1nc2c(F)c(-c3cc(O)cc4ccccc34)c(CCC#N)cc2c2c1cc(CCC(=O)N(C)C)n2[C@H]1[C@H]2CN[C@@H]1C2 [Example 48, 3-(1-((1R,4R,5S)-2-azabicyclo[2.1.1]hexan-5-yl)-8-(2-cyanoethyl)-4-ethoxy-6-fluoro-7-(3-hydroxynaphthalen-1-yl)-1H-pyrrolo[3,2-c]quinolin-2-yl)-N,N-dimethylpropanamide] | ≥ 7.00 | ≥ 7.00 |  |  | 
4 | CN1CCC[C@H]1COc1nc2c(F)c(-c3cc(O)cc4ccccc34)c(CCC#N)cc2c2c1c(CO)cn2C1C2CNC1C2 (stereo partly drawn) [Example 46, 3-(1-(2-Azabicyclo[2.1.1]hexan-5-yl)-6-fluoro-3-(hydroxymethyl)-7-(3-hydroxynaphthalen-1-yl)-4-(((S)-1-methylpyrrolidin-2-yl)methoxy)-1H-pyrrolo[3,2-c]quinolin-8-yl)propanenitrile] | 6.00 to 7.00 | ≥ 7.00 |  |  | 
5 | CN1CCC[C@H]1COc1nc2c(F)c(-c3cc(O)cc4ccccc34)c(CCC#N)cc2c2c1cc(Cc1ccccc1)n2C1C2CNC1C2 (stereo partly drawn) [Example 40, 3-(2-benzyl-1-(2-azabicyclo[2.1.1]hexan-5-yl)-6-fluoro-7-(3-hydroxynaphthalen-1-yl)-4-(((S)-1-methylpyrrolidin-2-yl)methoxy)-1H-pyrrolo[3,2-c]quinolin-8-yl)propanenitrile] | 5.30 to 6.00 | 6.00 to 7.00 |  |  | 
6 | C=CC(=O)N1CC[C@H](n2ncc3c(N4CC(C)(N(C)C)C4)nc4c(F)c(-c5c(C)c(Cl)cc6[nH]ncc56)c(Cl)cc4c32)C[C@H]1CC#N (single isomer, unassigned) [Example 16a] |  |  | ≥ 7.00 | ≥ 7.00 | 
7 | COC/C=C/C(=O)N1CC[C@H](n2ncc3c(N4CC(N(C)C)C4)nc4c(F)c(-c5c(C)c(C)cc6[nH]ncc56)c(Cl)cc4c32)C[C@H]1CC#N (single isomer, unassigned) [Example 75a] |  |  | ≥ 7.00 | ≥ 7.00 | 
8 | Cc1cc2[nH]ncc2c(-c2c(C)cc3c(nc(O[C@@H](C)[C@@H]4CCCN4C)c4cnn([C@H]5CCN(C(=O)/C=C/CF)[C@H](CC#N)C5)c43)c2F)c1C (single isomer, unassigned) [Example 67b] |  |  | ≥ 7.00 | ≥ 7.00 | 
9 | C=C(F)C(=O)N1CC[C@H](n2ncc3c(N4CC(C)(N(C)C)C4)nc4c(F)c(-c5cccc6cccc(C#N)c56)c(C)cc4c32)C[C@H]1CC#N (single isomer, unassigned) [Example 59a] |  |  | ≥ 7.00 | ≥ 7.00 | 
10 | Cc1c(Cl)cc2[nH]ncc2c1-c1c(Cl)cc2c(nc(OC[C@@H]3CCCN3C)c3cnn([C@H]4CCN(C(=O)/C=C/CN(C)C)[C@H](CC#N)C4)c32)c1F (single isomer, unassigned) [Example 17a] |  |  | ≥ 7.00 | ≥ 7.00 | 
11 | Cc1cc2c(nc(O[C@@H](C)[C@@H]3CCCN3C)c3cnn([C@H]4CCN(C(=O)/C=C/CF)[C@H](CC#N)C4)c32)c(F)c1-c1cccc2cccc(C#N)c12 (single isomer, unassigned) [Example 55b] |  |  | ≥ 7.00 | ≥ 7.00 | 
12 | COC/C=C/C(=O)N1CC[C@H](n2ncc3c(N4CC(N(C)C)C4)nc4c(F)c(-c5c(C)c(Cl)cc6[nH]ncc56)c(Cl)cc4c32)C[C@H]1CC#N (single isomer, unassigned) [Example 5a] |  |  | ≥ 7.00 | ≥ 7.00 | 
13 | CC#CC(=O)N1CC[C@H](n2ncc3c(OC[C@@H]4CCCN4C)nc4c(F)c(-c5c(C)c(Cl)cc6[nH]ncc56)c(Cl)cc4c32)C[C@H]1CC#N (single isomer, unassigned) [Example 18a] |  |  | ≥ 7.00 | ≥ 7.00 | 
14 | C=CC(=O)N1CC[C@H](n2ncc3c(N4CC(N(C)C)C4)nc4c(F)c(-c5cccc(C)c5C(F)(F)F)c(Cl)cc4c32)C[C@H]1CC#N [Example 27, 2-((2S,4S)-1-acryloyl-4-(8-chloro-4-(3-(dimethylamino)azetidin-1-yl)-6-fluoro-7-(3-methyl-2-(trifluoromethyl)phenyl)-1H-pyrazolo[4,3-c]quinolin-1-yl)piperidin-2-yl)acetonitrile] |  |  | ≥ 7.00 | ≥ 7.00 | 

Results, then the molecule that gave them:

Row | pIC50 (KRAS G12V) | pIC50 (KRAS G12D) | pIC50 (KRAS G12C) | pIC50 [1] | G12C_pERK (KRAS_G12C pERK assay IC50) [1] | SMILES
15 |  |  | ≥ 7.00 | ≥ 7.00 |  | C=C(F)C(=O)N1CC[C@H](n2ncc3c(O[C@@H](C)[C@@H]4CCCN4C)nc4c(F)c(-c5cccc6cccc(Cl)c56)c(Cl)cc4c32)C[C@H]1CC#N [Example 86, 2-((2S,4S)-4-(8-chloro-7-(8-chloronaphthalen-1-yl)-6-fluoro-4-((S)-1-((S)-1-methylpyrrolidin-2-yl)ethoxy)-1H-pyrazolo[4,3-c]quinolin-1-yl)-1-(2-fluoroacryloyl)piperidin-2-yl)acetonitrile]
16 |  |  | ≥ 7.00 | ≥ 7.00 |  | CC#CC(=O)N1CC[C@H](n2ncc3c(N4CC(C)(N(C)C)C4)nc4c(F)c(-c5c(C)c(Cl)cc6[nH]ncc56)c(Cl)cc4c32)C[C@H]1CC#N (single isomer, unassigned) [Example 11a]
17 |  |  | ≥ 7.00 | ≥ 7.00 |  | COC/C=C/C(=O)N1CC[C@H](n2ncc3c(O[C@@H](C)[C@@H]4CCCN4C)nc4c(F)c(-c5cccc6cccc(C#N)c56)c(C)cc4c32)C[C@H]1CC#N (single isomer, unassigned) [Example 57b]
18 |  |  | ≥ 7.00 | ≥ 7.00 |  | Cc1cc2[nH]ncc2c(-c2c(C)cc3c(nc(N4CC(C)(N(C)C)C4)c4cnn([C@H]5CCN(C(=O)/C=C/CF)[C@H](CC#N)C5)c43)c2F)c1C (single isomer, unassigned) [Example 64a]
19 |  |  | ≥ 7.00 | ≥ 7.00 |  | C=CC(=O)N1CC[C@H](n2ncc3c(N4CC(N(C)C)C4)nc4c(F)c(-c5ccc(F)c6cccnc56)c(Cl)cc4c32)C[C@H]1CC#N (single isomer, unassigned) [Example 21a]
20 |  |  | ≥ 7.00 | ≥ 7.00 |  | C=C(F)C(=O)N1CC[C@H](n2ncc3c(N4CC(N(C)C)C4)nc4c(F)c(-c5c(C)c(Cl)cc6[nH]ncc56)c(Cl)cc4c32)C[C@H]1CC#N (single isomer, unassigned) [Example 8a]
21 |  |  | ≥ 7.00 | ≥ 7.00 |  | Cc1c(Cl)cc2[nH]ncc2c1-c1c(Cl)cc2c(nc(N3CC(C)(N(C)C)C3)c3cnn([C@H]4CCN(C(=O)/C=C/CF)[C@H](CC#N)C4)c32)c1F (single isomer, unassigned) [Example 13a]
22 |  |  | ≥ 7.00 | ≥ 7.00 |  | CC#CC(=O)N1CC[C@H](n2ncc3c(O[C@@H](C)[C@@H]4CCCN4C)nc4c(F)c(-c5c(C)c(C)cc6[nH]ncc56)c(C)cc4c32)C[C@H]1CC#N (single isomer, unassigned) [Example 69b]
23 |  |  | ≥ 7.00 |  | †† | C=CC(=O)N1CCC(n2ncc3cnc4c(F)c(-c5cc(O)cc6ccccc56)c(Cl)cc4c32)CC1 [Example 1]
